Results: paper PMC3269340, “Pharmacokinetics of memantine in rats and mice” (PLoS Currents, 2012)
Where two headings read alike, the source gives them in different places.

What was measured:
[1] = Human pharmacokinetics (literature); format: in vivo
OCT2 = biological target: T1, OCT2 (Homo sapiens, UniProt O15244); test: Indirect uptake transporter assay, OCT2; format: in vitro ADME
T1 construct: expressed in transfected cells; host or cells: CHO cells
T1 sequence (O15244 1-555): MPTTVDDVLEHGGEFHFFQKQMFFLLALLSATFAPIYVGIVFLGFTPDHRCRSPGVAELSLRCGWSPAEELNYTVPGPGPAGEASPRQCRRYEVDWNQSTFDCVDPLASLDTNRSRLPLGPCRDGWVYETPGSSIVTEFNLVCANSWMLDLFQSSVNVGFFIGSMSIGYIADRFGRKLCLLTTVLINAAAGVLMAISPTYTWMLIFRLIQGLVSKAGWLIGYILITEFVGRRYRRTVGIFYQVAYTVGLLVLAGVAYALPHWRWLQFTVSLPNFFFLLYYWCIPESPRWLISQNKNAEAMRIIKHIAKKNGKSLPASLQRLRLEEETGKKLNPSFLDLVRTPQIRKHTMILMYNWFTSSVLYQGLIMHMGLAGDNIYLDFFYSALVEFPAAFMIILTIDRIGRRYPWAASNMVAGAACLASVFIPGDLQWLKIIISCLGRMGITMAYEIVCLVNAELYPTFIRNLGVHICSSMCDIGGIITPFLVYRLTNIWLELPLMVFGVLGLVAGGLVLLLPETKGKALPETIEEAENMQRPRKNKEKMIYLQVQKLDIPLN
Text: To determine whether memantine is an inhibitor of the human OATP2B1 (OATP-B), OCT1, OCT2, OAT3, PEPT1, PEPT2 uptake transporters. The standard uptake transporter assay is an indirect, inhibitory-type screening assay, performed with cold test article, which in this case was memantine. It provides information on any interaction (substrate or inhibitor) between selected uptake transporters and memantine that would affect the transport of the reporter compound. […] A radiolabeled reporter substrate is transported into the cells transfected with the selected human uptake transporter, and the inhibitory effect of memantine on the transport of this reporter substrate is measured. Values are presented on a relative scale; 100% defined as transport in the presence of the solvent and without memantine (no inhibition), and 0% defined as transport detected without transporter activity. IC50 is defined as the concentration required to inhibit the transport of the reporter substrate by 50%. […]
After the experiment cells were rinsed with 2 x 100µl of Krebs-Henseleit buffer and lysed with 50 µl of 0.1M NaOH. ^3H-estrone-3-sulfate, ^14C-TEA, ^14C-metformin and ^3H-Gly-Sar transport was determined by total radioactivity by transferring an aliquot (35µl) from each well to a vial containing liquid scintillant for analysis.

human PEPT1 = biological target: T2, human PEPT1 (Homo sapiens, UniProt P46059); test: Direct uptake transporter assay, PEPT1; format: in vitro ADME; conditions: for Accumulation in transporter transfected cells: PEPT1-transfected cells; for Accumulation in parental cells: parental CHO cells (PEPT1 line)
T2 sequence (P46059 1-708): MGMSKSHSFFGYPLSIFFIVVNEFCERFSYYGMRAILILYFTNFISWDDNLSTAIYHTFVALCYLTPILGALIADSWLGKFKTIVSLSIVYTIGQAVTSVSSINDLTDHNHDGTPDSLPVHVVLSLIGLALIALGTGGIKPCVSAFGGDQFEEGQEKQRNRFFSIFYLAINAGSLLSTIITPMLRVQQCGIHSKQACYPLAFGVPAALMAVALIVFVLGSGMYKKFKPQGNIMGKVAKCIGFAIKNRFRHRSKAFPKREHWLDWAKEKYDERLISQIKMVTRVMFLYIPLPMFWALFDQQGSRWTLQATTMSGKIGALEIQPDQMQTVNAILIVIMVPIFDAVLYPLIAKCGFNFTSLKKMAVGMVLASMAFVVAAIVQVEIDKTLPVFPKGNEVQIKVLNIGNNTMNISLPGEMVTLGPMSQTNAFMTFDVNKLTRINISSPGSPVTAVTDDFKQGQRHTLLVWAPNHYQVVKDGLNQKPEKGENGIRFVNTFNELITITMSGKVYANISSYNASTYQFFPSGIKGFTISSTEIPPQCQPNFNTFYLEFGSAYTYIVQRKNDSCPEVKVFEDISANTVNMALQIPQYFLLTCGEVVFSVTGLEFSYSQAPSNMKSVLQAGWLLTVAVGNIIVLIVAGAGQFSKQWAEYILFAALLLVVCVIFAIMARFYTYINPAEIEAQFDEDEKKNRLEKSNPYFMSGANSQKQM
Experimental: To determine whether memantine is a substrate of the human OATP2B1 (OATP-B), OCT1, OCT2, OAT3, PEPT1, PEPT2 uptake transporters.
The potential for memantine to be a substrate of an uptake transporter was determined directly by comparing the uptake of memantine into cells expressing the selected uptake transporter with its uptake into control cells. Memantine was added to transporter-expressing and control cells at two concentrations (PEPT1 and PEPT2 100 and 300 µM, OCT1 and OCT2 50 and 100 µM, OATP2B1 100 and 300 µM), and incubated with cells for 2 and 20 min at 37±1°C (75 µL final incubation volume). The final concentrations of memantine were selected to be the IC50 of reporter substrate transport inhibition established in the indirect transporter assay and one order of magnitude lower. Incubations were carried out as described in the indirect uptake transporter assays. The concentration of memantine was determined by LC-MS/MS.

## CC12CC3CC(C)(C1)CC(N)(C3)C2 [memantine]
[1]
  Contribution of active transport to clearance: 30-40%
  renal clearance higher than human GFR of 125 mL/min: approximately 30%
  total systemic clearance, times higher than GFR: ~1.4 fold
[1]; listed as Memantine
  total systemic clearance, times higher than GFR: ~ 1.4 fold
[1]; plasma, oral, 10 mg, estimated, read-out: Cl p (converted)
  clearance: 2.67 mL/min/kg
OCT2; OCT2-mediated metformin uptake
  IC50: 8.9 µM
OCT2; OCT2, probe in Table 5: Gly-Sar (1.8 μM), methods and text: metformin
  IC50: 8.86 µM
Human PEPT1; PEPT1, 100µM, 20 min
  Highest Fold Activation: 1.1 (100µM, 20 min)
Human PEPT1; 2 min, 100 µM
  Accumulation in transporter transfected cells: 1073 pmol/mg
  Accumulation in parental cells: 969 pmol/mg
Human PEPT1; 2 min, 300 µM
  Accumulation in transporter transfected cells: 2290 pmol/mg
  Accumulation in parental cells: 2389 pmol/mg
Human PEPT1; 20 min, 100 µM
  Accumulation in transporter transfected cells: 1087 pmol/mg
  Accumulation in parental cells: 981 pmol/mg
Human PEPT1; 20 min, 300 µM
  Accumulation in transporter transfected cells: 1682 pmol/mg
  Accumulation in parental cells: 1614 pmol/mg
Human PEPT1; no preferential accumulation in transfected over parental cells
  substrate of PEPT1 uptake transporter: not a substrate
